The text below walks through data of patent US11970498B2, “CDK2 inhibitors” (BLUEPRINT MEDICINES CORPORATION, priority 2021, dated 2024).

For one assay, the target named is CDK2/Cyclin E (Homo sapiens, UniProt P24941). Put plainly: CDK2/Cyclin E biochemical phosphorylation assay (Caliper mobility shift). Conditions: apparent IC50; 1.0 mM ATP or ATP Km; 1.25 nM enzyme; 25° C.; read-out: CDK2/cyclin E1 IC50. A digest of the protocol:
(§1)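 Caliper electrophoretic separation of substrate and phosphopeptide gave apparent IC50s. Enzymes: CDK1/Cyclin B1 GST-tag 1.5 nM, CDK2/Cyclin E 1.25 nM; ATP 1.0 mM or at Km; 7.5 µM FL-peptide; pH 7.5 HEPES buffer, 1% DMSO; room temperature until 10–20% phosphorylated, then EDTA quench.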

A further assay deals with T1, CDK1/Cyclin B1, GST-tag (Homo sapiens, UniProt P06493).
T1 construct: GST
T1 sequence (P06493 whole entry): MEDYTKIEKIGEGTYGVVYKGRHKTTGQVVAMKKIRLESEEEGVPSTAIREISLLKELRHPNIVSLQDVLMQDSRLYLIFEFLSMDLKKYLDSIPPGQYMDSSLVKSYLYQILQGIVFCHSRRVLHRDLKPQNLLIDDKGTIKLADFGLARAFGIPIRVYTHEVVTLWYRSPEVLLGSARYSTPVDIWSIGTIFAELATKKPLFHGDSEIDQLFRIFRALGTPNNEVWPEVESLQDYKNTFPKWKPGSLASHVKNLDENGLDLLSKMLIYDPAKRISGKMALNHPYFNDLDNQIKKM
T1 sequence (P14635 whole entry partner): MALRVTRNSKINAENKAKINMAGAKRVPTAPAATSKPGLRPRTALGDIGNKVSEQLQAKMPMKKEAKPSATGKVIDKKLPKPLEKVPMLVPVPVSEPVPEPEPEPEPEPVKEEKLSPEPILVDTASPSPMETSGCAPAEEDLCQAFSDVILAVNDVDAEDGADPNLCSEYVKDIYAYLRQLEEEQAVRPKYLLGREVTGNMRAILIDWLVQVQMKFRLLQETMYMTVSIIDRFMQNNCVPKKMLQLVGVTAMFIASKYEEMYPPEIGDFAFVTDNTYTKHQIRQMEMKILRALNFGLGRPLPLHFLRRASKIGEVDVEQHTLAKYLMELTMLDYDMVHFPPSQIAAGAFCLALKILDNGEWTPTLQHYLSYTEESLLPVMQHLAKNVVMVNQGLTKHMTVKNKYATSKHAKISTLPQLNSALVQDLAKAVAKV
Put plainly: CDK1/Cyclin B1 biochemical phosphorylation assay (Caliper mobility shift). The following applies: apparent IC50; 1.0 mM ATP or ATP Km; 1.5 nM enzyme; 25° C. Summed up: as §1

Some results are limits rather than exact numbers.

As for `FC(F)Oc1cc(Nc2cnc3cnn(CC4(C(F)(F)F)CCOCC4)c3n2)n[nH]1` [Example 121, N-(5-(difluoromethoxy)-1H-pyrazol-3-yl)-1-((4-(trifluoromethyl)tetrahydro-2H-pyran-4-yl)methyl)-1H-pyrazolo[3,4-b]pyrazin-6-amine], the IC50 is 30 to 100 nM at CDK2/Cyclin E and no less than 500 nM on CDK1/Cyclin B1, GST-tag.

As for `Cc1nn(CC2CCOCC2)c2nc(Nc3cc(OC(F)F)[nH]n3)cnc12` [Example 87, N-(5-(difluoromethoxy)-1H-pyrazol-3-yl)-3-methyl-1-((tetrahydro-2H-pyran-4-yl)methyl)-1H-pyrazolo[3,4-b]pyrazin-6-amine], the IC50 on CDK2/Cyclin E was no more than 10 nM; on CDK1/Cyclin B1, GST-tag it was 100 to 500 nM.

As to `FC(F)Oc1cc(Nc2cnc3cnn(CC4CCCC4)c3n2)n[nH]1` [Example 104, 1-(cyclopentylmethyl)-N-(5-(difluoromethoxy)-1H-pyrazol-3-yl)-1H-pyrazolo[3,4-b]pyrazin-6-amine], the IC50 on CDK2/Cyclin E is no more than 10 nM; on CDK1/Cyclin B1, GST-tag it was 100 to 500 nM.

Regarding `C[C@@H]1C[C@H](Cn2ncc3ncc(Nc4cc(OC(F)F)[nH]n4)nc32)C[C@H](C)O1` [Example 65, N-(5-(difluoromethoxy)-1H-pyrazol-3-yl)-1-(((2R,4r,6S)-2,6-dimethyltetrahydro-2Hpyran-4-yl)methyl)-1Hpyrazolo[3,4-b]pyrazin-6-amine], the IC50 at CDK2/Cyclin E is no more than 10 nM; at CDK1/Cyclin B1, GST-tag, less than 100 nM.

For the compound `COc1cc(Nc2cnc3cnn(C[C@H]4C[C@@H]4C#N)c3n2)n[nH]1` (single isomer, unassigned) [Example 197, (1R,2R)-2-((6-((5-methoxy-1H-pyrazol-3-yl)amino)-1H-pyrazolo[3,4-b]pyrazin-1-yl)methyl)cyclopropane-1-carbonitrile or (1S,2S)-2-((6-((5-methoxy-1H-pyrazol-3-yl)amino)-1H-pyrazolo[3,4-b]pyrazin-1-yl)methyl)cyclopropane-1-carbonitrile], the IC50 at CDK2/Cyclin E was 20 to 30 nM; on CDK1/Cyclin B1, GST-tag, no less than 500 nM.

Regarding `N#C[C@@]1(Cn2ncc3ncc(Nc4cc(OC(F)F)[nH]n4)nc32)CCOC1` (single isomer, unassigned) [Example 170, (R)-3-((6-((5-(difluoromethoxy)-1H-pyrazol-3-yl)amino)-1H-pyrazolo[3,4-b]pyrazin-1-yl)methyl)tetrahydrofuran-3-carbonitrile or (S)-3-((6-((5-(difluoromethoxy)-1H-pyrazol-3-yl)amino)-1H-pyrazolo[3,4-b]pyrazin-1-yl)methyl)tetrahydrofuran-3-carbonitrile], the IC50 was greater than 100 nM on CDK2/Cyclin E and no less than 500 nM at CDK1/Cyclin B1, GST-tag.

With `FC(F)Oc1cc(Nc2cnc3cnn(CC4COC4)c3n2)n[nH]1` [Example 85, N-(5-(difluoromethoxy)-1H-pyrazol-3-yl)-1-(oxetan-3-ylmethyl)-1H-pyrazolo[3,4-b]pyrazin-6-amine], the IC50 is 10 to 20 nM on CDK2/Cyclin E and no less than 500 nM at CDK1/Cyclin B1, GST-tag.

Turning to `COc1ncccc1[C@H](C)n1ncc2ncc(Nc3cc(OC(F)F)[nH]n3)nc21` [Example 59, (S)-N-(5-(difluoromethoxy)-1H-pyrazol-3-yl)-1-(1-(2-methoxypyridin-3-yl)ethyl)-1H-pyrazolo[3,4-b]pyrazin-6-amine], the IC50 at CDK2/Cyclin E is no more than 10 nM; on CDK1/Cyclin B1, GST-tag, no less than 500 nM.

As for `C[C@@H](c1cc(Cl)ccn1)n1ncc2ncc(Nc3cc(OC(F)F)[nH]n3)nc21` (single isomer, unassigned) [Example 189, (R)-1-(1-(4-chloropyridin-2-yl)ethyl)-N-(5-(difluoromethoxy)-1H-pyrazol-3-yl)-1H-pyrazolo[3,4-b]pyrazin-6-amine or (S)-1-(1-(4-chloropyridin-2-yl)ethyl)-N-(5-(difluoromethoxy)-1H-pyrazol-3-yl)-1H-pyrazolo[3,4-b]pyrazin-6-amine], the IC50 on CDK2/Cyclin E was greater than 100 nM; on CDK1/Cyclin B1, GST-tag it was no less than 500 nM.

In the case of `FC(F)Oc1cc(Nc2cnc3cnn(C4CCOCC4)c3n2)n[nH]1` [Example 83, N-(5-(difluoromethoxy)-1H-pyrazol-3-yl)-1-(tetrahydro-2H-pyran-4-yl)-1H-pyrazolo[3,4-b]pyrazin-6-amine], the IC50 on CDK2/Cyclin E is no more than 10 nM; at CDK1/Cyclin B1, GST-tag, no less than 500 nM.

With `FC(F)Oc1cc(Nc2cnc3cnn(C[C@@H]4[C@@H]5COC[C@@H]54)c3n2)n[nH]1` [Example 111, 1-(((1R,5S,6r)-3-oxabicyclo[3.1.0]hexan-6-yl)methyl)-N-(5-(difluoromethoxy)-1H-pyrazol-3-yl)-1H-pyrazolo[3,4-b]pyrazin-6-amine], the IC50 at CDK2/Cyclin E was no more than 10 nM; on CDK1/Cyclin B1, GST-tag, no less than 500 nM.

For the compound `FC(F)Oc1cc(Nc2cnc3cnn(CC4CCC4)c3n2)n[nH]1` [Example 101, 1-(cyclobutylmethyl)-N-(5-(difluoromethoxy)-1H-pyrazol-3-yl)-1H-pyrazolo[3,4-b]pyrazin-6-amine], the IC50 on CDK2/Cyclin E was no more than 10 nM; on CDK1/Cyclin B1, GST-tag, 100 to 500 nM.

Take `[2H]C([2H])([2H])Oc1cc(Nc2cnc3cnn(Cc4cccnc4)c3n2)n[nH]1` [Example 227, N-(5-(methoxy-d3)-1H-pyrazol-3-yl)-1-(pyridin-3-ylmethyl)-1H-pyrazolo[3,4-b]pyrazin-6-amine]: the IC50 at CDK2/Cyclin E is 10 to 20 nM; at CDK1/Cyclin B1, GST-tag, no less than 500 nM.

Regarding `COc1cc(Nc2cnc3cnn([C@@H](C)C4CCOCC4)c3n2)n[nH]1` [Example 22, (S)—N-(5-methoxy-1H-pyrazol-3-yl)-1-(1-(tetrahydro-2H-pyran-4-yl)ethyl)-1H-pyrazolo[3,4-b]pyrazin-6-amine], the IC50 on CDK2/Cyclin E was no more than 10 nM; on CDK1/Cyclin B1, GST-tag, 100 to 500 nM.

In the case of `FC(F)Oc1cc(Nc2cnc3cnn(CC4CCCCC4)c3n2)n[nH]1` [Example 105, 1-(cyclohexylmethyl)-N-(5-(difluoromethoxy)-1H-pyrazol-3-yl)-1H-pyrazolo[3,4-b]pyrazin-6-amine], the IC50 was no more than 10 nM on CDK2/Cyclin E and 100 to 500 nM on CDK1/Cyclin B1, GST-tag.

On to `C[C@H](c1cccnc1)n1ncc2ncc(Nc3cc(OC(F)F)[nH]n3)nc21` [Example 91, (R)-N-(5-(difluoromethoxy)-1H-pyrazol-3-yl)-1-(1-(pyridin-3-yl)ethyl)-1H-pyrazolo[3,4-b]pyrazin-6-amine], for which the IC50 on CDK2/Cyclin E is 20 to 30 nM; on CDK1/Cyclin B1, GST-tag, no less than 500 nM.

As to `FC(F)Oc1cc(Nc2cnc3cnn([C@H](c4ccccn4)C(F)F)c3n2)n[nH]1` (single isomer, unassigned) [Example 150, (S)-1-(2,2-difluoro-1-(pyridin-2-yl)ethyl)-N-(5-(difluoromethoxy)-1H-pyrazol-3-yl)-1H-pyrazolo[3,4-b]pyrazin-6-amine or (R)-1-(2,2-difluoro-1-(pyridin-2-yl)ethyl)-N-(5-(difluoromethoxy)-1H-pyrazol-3-yl)-1H-pyrazolo[3,4-b]pyrazin-6-amine], the IC50 is 10 to 20 nM on CDK2/Cyclin E and no less than 500 nM at CDK1/Cyclin B1, GST-tag.

Regarding `C[C@H](C1CC1)n1ncc2ncc(Nc3cc(OC(F)F)[nH]n3)nc21` [Example 55, (R)-1-(1-cyclopropylethyl)-N-(5-(difluoromethoxy)-1H-pyrazol-3-yl)-1H-pyrazolo[3,4-b]pyrazin-6-amine], the IC50 is no more than 10 nM on CDK2/Cyclin E and no less than 500 nM on CDK1/Cyclin B1, GST-tag.
